Source: patent US6521623B1, “N,N'-disubstituted benzimidazolone derivatives with affinity at the serotonin and dopamine receptors” (Boehringer Ingelheim Pharma KG, priority 2000, dated 2003)

Columns and labels:
D4 human receptors = molecular target: T1, D4 human receptors (Homo sapiens, UniProt P21917); test: D4 Radioligand Receptor Binding Assay ([3H] YM-09151-2, CHO cell membranes); conditions: compound 10^−7 M, singlicate, [3H] YM-09151-2 0.15-0.25 nM
T1 construct: expressed in transfected cells; host or cells: CHO cells
T1 sequence (P21917 1-419): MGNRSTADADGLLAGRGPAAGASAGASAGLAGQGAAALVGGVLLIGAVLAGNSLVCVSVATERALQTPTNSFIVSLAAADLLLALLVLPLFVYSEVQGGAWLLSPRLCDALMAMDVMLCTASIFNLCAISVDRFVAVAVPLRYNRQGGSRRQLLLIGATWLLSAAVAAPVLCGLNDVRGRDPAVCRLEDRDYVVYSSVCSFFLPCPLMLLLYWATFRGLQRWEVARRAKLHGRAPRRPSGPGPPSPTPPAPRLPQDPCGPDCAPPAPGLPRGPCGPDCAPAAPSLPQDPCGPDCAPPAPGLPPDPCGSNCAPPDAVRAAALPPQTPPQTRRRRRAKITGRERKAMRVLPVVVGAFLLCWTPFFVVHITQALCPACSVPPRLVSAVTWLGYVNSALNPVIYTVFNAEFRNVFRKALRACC
Description: D4 Radioligand Receptor Binding Assay
Membranes from CHO cells expressing D4 human receptors, were suspended in incubation buffer.
Binding assays were performed in MultiProbe 204 pipetting system (Packard), according to a predetermined mapping, consistent with the software Screen. The compounds were tested in singlicate at one concentration (10^−7 M) in a total volume of 1000 μl (980 μl of diluted membranes, 10 μl DMSO or unlabelled ligand and 10 μl of [^3H] YM-09151-2 (0.15-0.25 nM). After incubation for 120 minutes at 27° C., the reaction was stopped by rapid filtration through Tomtec Cell Harvester (48 wells) using Filtermat B (presoaked in 0.1% PEI) filters. Filters were washed with ice-cold 50 mM Tris-HCl (pH 7.4) buffer (9×700 μl), dried, covered with MeltiLex B/HS (Wallac) scintillator sheets and heated in oven at 80° C. to 90° C. for about 10 minutes, transferred into plastic sample bags (Wallac), sealed, and put into 1024 Beta Plate scintillation counter (Wallac). Non-specific binding was determined in the presence of clozapine dissolved in DMSO to a final concentration of 10^−5 M.
(§1) The specific radioligand binding to the receptor was defined by the difference between total binding and non-specific binding, determined in the presence of an excess of unlabelled ligand. Results were expressed as percentage of control specific binding obtained in the presence of the compounds.

5-HT1A = molecular target: T2, 5-HT1A (Homo sapiens, UniProt P08908); test: 5HT1A Radioligand Receptor Binding Assay ([3H]-8-OH-DPAT, CHO cell membranes); parameters: expressed in transfected cells; host or cells: CHO cells; conditions: CHO membranes, human 5-HT1A; for 5-HT1A Receptor Binding Assay % inhibition (10^−7 M) / inhibition at 0.1 µM: compound 10^−7 M, singlicate, [3H]-8-OH-DPAT 0.6-0.7 nM; for IC50: [3H]-8-OH-DPAT, read-out: 5-HT1A Receptor Binding IC50
T2 sequence (P08908 1-422): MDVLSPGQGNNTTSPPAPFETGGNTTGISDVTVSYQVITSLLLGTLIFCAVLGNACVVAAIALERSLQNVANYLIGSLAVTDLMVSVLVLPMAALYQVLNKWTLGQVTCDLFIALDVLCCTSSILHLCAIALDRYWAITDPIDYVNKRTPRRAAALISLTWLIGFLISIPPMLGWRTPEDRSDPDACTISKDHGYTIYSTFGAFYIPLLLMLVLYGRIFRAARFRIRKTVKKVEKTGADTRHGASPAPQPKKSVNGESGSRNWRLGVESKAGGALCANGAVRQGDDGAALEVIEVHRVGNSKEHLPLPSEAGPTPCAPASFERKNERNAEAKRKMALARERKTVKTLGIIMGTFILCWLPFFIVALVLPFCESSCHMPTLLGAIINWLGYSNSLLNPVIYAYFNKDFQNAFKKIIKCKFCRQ
Description: 5HT1A Radioligand Receptor Binding Assay
Membranes from CHO cells, expressing 5-HT1A human receptors were suspended in incubation buffer.
Binding assays were performed in MultiProbe 204 pipetting system (Packard), according to a predetermined mapping, consistent with the software Screen. The compounds were tested in singlicate at one concentration (10^−7 M) in a total volume of 1000 μl. 980 μl of diluted membranes, 10 μl DMSO or unlabelled ligand and 10 μl of [^3H]-8-OH-DPAT (0.6-0.7 nM) were incubated for 60 minutes at 27° C. The reaction was stopped by rapid filtration through Tomtec Cell Harvester (48 wells) using Filtermat B (presoaked in 0.1% PEI) filters. Filters were washed with ice-cold 50 mM Tris-HCl (pH 7.4) buffer (9×700 μl), dried, covered with MeltiLex B/HS scintillator sheets (Wallac) and heated at 80° C. to 90° C. for about 10 minutes, transferred into plastic sample bags (Wallac), sealed, and put into 1024 Beta Plate scintillation counter (Wallac). Non-specific binding was determined in the presence of 5-HT (10^−5 M).
as §1, with “compounds. The affinity values (IC50) for the compounds were obtained by a nonlinear least squares regression analysis on the basis of a one binding site model.” for “compounds.”

SMILES | D4 Receptor Binding Assay % inhibition (10^−7 M) (D4 human receptors) | 5-HT1A Receptor Binding Assay % inhibition (10^−7 M) (5-HT1A) | inhibition at 0.1 µM (D4 human receptors) | IC50 (5-HT1A) | inhibition at 0.1 µM (5-HT1A)
CCNC(=O)OCCn1c(=O)n(CCCCN2CC=C(c3ccccc3)CC2)c2ccccc21 [Compound 84] | 42% | 52% |  |  | 
CCNC(=O)OCCn1c(=O)n(CCCCN2CCN(c3ccc(Cl)c(Cl)c3)CC2)c2ccccc21 [Compound 85] | 79% | 77% |  |  | 
O=c1n(CCN2CCCCC2)c2ccccc2n1CCN1CCN(c2cccc(Cl)c2)CC1 [Compound 145] | 42% | 85% |  |  | 
O=c1n(CCN2CCCCC2)c2ccccc2n1CCN1CCN(c2cccc(C(F)(F)F)c2)CC1 [Compound 149] | 35% | 88% |  |  | 
O=c1n(CCN2CC=C(c3ccccc3)CC2)c2ccccc2n1CCN1CCCCC1 [Compound 150] | 52% | 57% |  |  | 
COCCn1c(=O)n(CCN2CC=C(c3ccccc3)CC2)c2ccccc21 [Compound 169] | 58% | 85% |  |  | 
O=c1n(CCO)c2ccccc2n1CCN1CC=C(c2ccccc2)CC1 [Compound 188] | 78% | 78% |  |  | 
O=c1n(C/C=C\CN2CCN(c3cccc(Cl)c3)CC2)c2ccccc2n1CCN1CCOCC1 [Compound 263] |  |  | 42% | 8.8 nM | 92%
COCCn1c(=O)n(C/C=C/CN2CCN(c3cccc(Cl)c3)CC2)c2ccccc21 [Compound 297] |  |  | 34% | 7.9 nM | 96%
O=c1n(C/C=C\CN2CCc3c([nH]c4ccccc34)C2)c2ccccc2n1CCN1CCCCC1 [Compound 316] | 94% | 72% |  |  | 
O=c1n(C/C=C\CN2CC=C(c3ccccc3)CC2)c2ccccc2n1CCN1CCCCC1 [Compound 319] | 70% | 94% |  |  | 
O=c1n(C/C=C/CN2CCN(c3ccccc3)CC2)c2ccccc2n1CCN1CCCCC1 [Compound 327] | 74% | 78% |  |  | 
O=c1n(C/C=C/CN2CCN(c3cccc(Cl)c3)CC2)c2ccccc2n1CCN1CCCCC1 [Compound 331] | 92% | 100% |  |  | 
O=c1n(C/C=C/CN2CCN(c3ncccn3)CC2)c2ccccc2n1CCN1CCCCC1 [Compound 332] | 85% | 78% |  |  | 
O=c1n(C/C=C/CN2CC=C(c3ccccc3)CC2)c2ccccc2n1CCN1CCCCC1 [Compound 336] | 81% | 90% |  |  | 
O=c1n(C/C=C/CN2CCN(c3ncccn3)CC2)c2ccccc2n1CCN1CCOCC1 [Compound 349] | 31% | 73% |  |  | 
O=c1n(C/C=C\CN2CCN(c3ccccn3)CC2)c2ccccc2n1CCO [Compound 364] | 36% | 77% |  |  | 
O=c1n(C/C=C\CN2CCN(c3cccc(Cl)c3)CC2)c2ccccc2n1CCO [Compound 365] |  |  | 63% | 15 nM | 

Further lines, results first:

D4 Receptor Binding Assay % inhibition (10^−7 M) (D4 human receptors) | 5-HT1A Receptor Binding Assay % inhibition (10^−7 M) (5-HT1A) | inhibition at 0.1 µM (D4 human receptors) | IC50 (5-HT1A) | inhibition at 0.1 µM (5-HT1A) | SMILES
62% | 92% |  |  |  | COc1ccccc1N1CCN(CCCCn2c(=O)n(CCO)c3ccccc32)CC1 [Compound 74]
54% | 67% |  |  |  | CCNC(=O)OCCn1c(=O)n(CCCCN2CCN(c3ccccc3)CC2)c2ccccc21 [Compound 75]
44% | 69% |  |  |  | CCNC(=O)OCCn1c(=O)n(CCCCN2CCN(c3ccccn3)CC2)c2ccccc21 [Compound 78]
58% | 86% |  |  |  | CCNC(=O)OCCn1c(=O)n(CCCCN2CCN(c3cccc(Cl)c3)CC2)c2ccccc21 [Compound 79]
55% | 94% |  |  |  | CCNC(=O)OCCn1c(=O)n(CCCCN2CCN(c3cccc(C)c3C)CC2)c2ccccc21 [Compound 92]
62% | 94% |  |  |  | CCNC(=O)OCCn1c(=O)n(CCCCN2CCN(c3ccccc3OC)CC2)c2ccccc21 [Compound 93]
72% | 88% |  |  |  | CCNC(=O)OCCn1c(=O)n(CCCCN2CCN(c3cccc(C)c3)CC2)c2ccccc21 [Compound 94]
64% | 85% |  |  |  | CCNC(=O)OCCn1c(=O)n(CCCCN2CCN(c3ccccc3C)CC2)c2ccccc21 [Compound 95]
72% | 92% |  |  |  | CCNC(=O)OCCn1c(=O)n(CCCCN2CCN(c3ccccc3Cl)CC2)c2ccccc21 [Compound 96]
58% | 55% |  |  |  | CC(=O)NCCn1c(=O)n(CCCCN2CCN(c3ccc(Cl)c(Cl)c3)CC2)c2ccccc21 [Compound 107]
36% | 80% |  |  |  | CC(=O)NCCn1c(=O)n(CCCCN2CCN(c3ccccc3Cl)CC2)c2ccccc21 [Compound 118]
50% | 85% |  |  |  | COc1ccccc1N1CCN(CCn2c(=O)n(CCN3CCCCC3)c3ccccc32)CC1 [Compound 159]
45% | 62% |  |  |  | O=c1n(CCO)c2ccccc2n1CCN1CCN(c2ccccn2)CC1 [Compound 182]
99% | 54% |  |  |  | O=c1n(CCO)c2ccccc2n1CCN1CCN(c2ccc(Cl)c(Cl)c2)CC1 [Compound 189]
43% | 77% |  |  |  | COc1ccccc1N1CCN(CCn2c(=O)n(CCO)c3ccccc32)CC1 [Compound 197]
44% | 92% |  |  |  | CCNC(=O)OCCn1c(=O)n(CCN2CCN(c3ccccc3OC)CC2)c2ccccc21 [Compound 216]
46% | 86% |  |  |  | O=c1n(C/C=C\CN2CCN(c3ccccc3)CC2)c2ccccc2n1CCO [Compound 361]
